One data set has as its target T1, RARβ (Homo sapiens, UniProt P10826).
T1 sequence (P10826 1-455): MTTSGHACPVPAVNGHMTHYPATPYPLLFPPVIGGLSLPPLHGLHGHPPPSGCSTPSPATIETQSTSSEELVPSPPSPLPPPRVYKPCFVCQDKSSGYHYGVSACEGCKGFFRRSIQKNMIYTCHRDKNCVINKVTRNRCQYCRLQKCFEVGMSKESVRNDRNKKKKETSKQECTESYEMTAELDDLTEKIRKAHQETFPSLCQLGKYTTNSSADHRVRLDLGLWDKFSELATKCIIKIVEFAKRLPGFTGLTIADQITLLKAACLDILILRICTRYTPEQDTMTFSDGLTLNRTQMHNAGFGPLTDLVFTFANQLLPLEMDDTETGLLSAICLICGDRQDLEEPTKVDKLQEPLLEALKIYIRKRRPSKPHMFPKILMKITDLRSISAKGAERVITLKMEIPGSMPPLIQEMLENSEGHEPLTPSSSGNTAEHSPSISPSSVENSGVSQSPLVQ
As to the kind of experiment: ligand binding assay. Particulars: read-out: RAR Bind. Ki β.

Data set [1] deals with T2, RXRγ (UniProt P28705).
T2 sequence (P28705 1-463): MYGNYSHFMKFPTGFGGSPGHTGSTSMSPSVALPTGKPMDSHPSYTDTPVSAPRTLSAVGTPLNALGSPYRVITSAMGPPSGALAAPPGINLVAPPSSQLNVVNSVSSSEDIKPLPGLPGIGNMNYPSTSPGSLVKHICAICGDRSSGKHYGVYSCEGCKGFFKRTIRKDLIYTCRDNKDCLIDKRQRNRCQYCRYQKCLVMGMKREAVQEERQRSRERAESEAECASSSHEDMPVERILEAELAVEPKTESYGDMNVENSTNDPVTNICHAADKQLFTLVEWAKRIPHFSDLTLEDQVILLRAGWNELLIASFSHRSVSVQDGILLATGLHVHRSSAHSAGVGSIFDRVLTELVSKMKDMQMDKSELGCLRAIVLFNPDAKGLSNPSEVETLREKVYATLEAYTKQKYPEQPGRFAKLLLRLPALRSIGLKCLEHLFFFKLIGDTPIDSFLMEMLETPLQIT
As to the kind of experiment: holoreceptor transactivation assay. Particulars: percentage compared to the standard compound.
Description: The results obtained in this assay are expressed in EC50 numbers, as they are also in the chimeric receptor transactivation assay.
Particularly, the transactivation data pertaining to activation of the RAR receptors were obtained in the chimeric assay, and the transactivation data pertaining to the activation of RXR receptors were obtained in the holoreceptor assay.

The test system of data set [2] is female diabetic db/db mice. Kind of data set: serum glucose, triglyceride and thyroxine levels in db/db mice. In kind it is in vivo. To be noted: 50 mg/kg oral gavage daily; for Glucose Day 0 / Triglycerides Day 0: day 0 (pre-treatment). How it is done: An assay described below tests the effect of compounds of the invention on serum glucose, tryglyceride and thyroxine levels in female 9-10 weeks old db/db mice.
Blood samples (70 μl) were taken by orbital bleeding at 11:00 AM on day 0 (pre-treatment), day 3, and day 6. On day 7, a blood sample (700 μl) was taken at 11:00 AM and the animals were sacrificed. Glucose, triglyceride and thyroxine (T4) levels were determined on a Boehringer Manheim Hatachi Clinical Chemistry Analyzer using standard protocols provided by the manufacturer and reagents that were supplied in commercially available kits (glucose and T4: Boehringer Manheim; triglycerides: Roche Diagnostics). Seven animals were treated in each group.

In data set [3] the target is T3, RXRγ (Homo sapiens, UniProt P48443).
T3 sequence (P48443 1-463): T2 sequence (P28705 1-463) with T13A, F15Y, V31A, P34S, S228T, S230G, V258M, S450T
Kind of data set: ligand binding assay. Particulars: read-out: RXR Bind. Ki γ.
Description: (§1) The results of the ligand binding assay are expressed in Ki numbers.

The source of these data is patent publication US6759546B1, “3,5-di-iso-propyl-heptatrienoic acid derivatives having serum glucose reducing activity” (Allergan, Inc., priority 2003, dated 2004).

The structures appear in SMILES notation. Where a chain is given by its changes, count along the chain named.

Description for RARβ: as §1

In the case of `CCCOc1c(\C(=C/C=C/C(C)=C/C(=O)O)CC)cc(C(C)C)cc1C(C)C` [Compound 8, 7-(3,5-Diisopropyl-2-propoxy-phenyl)-3-methyl-nona-2,4,6-trienoic acid], on RARβ, the inhibition constant Ki was found to be 80 nM. For the same compound, the “RXR Trans. efficacy γ” value at RXRγ [1] was found to be 21%. Besides, in data set [2] (Table 3), the “Glucose Day 0” value was 468 mg/dL; the “Triglycerides Day 0” value turned out to be 173 mg/dL; the “Glucose Day 3, 3 h” value was 443 mg/dL; the “Triglycerides Day 3, 3 h” value amounted to 278 mg/dL. Besides, in data set [2] (Table 3), the “Glucose Day 6, 3 h” value was 384 mg/dL and the “T4 Day 7” value was 3.0 µg/dL.
`CCCOc1c(\C(C)=C/C=C/C(C)=C/C(=O)O)cc(C(C)C)cc1C(C)C` [Compound 16, 7-(3,5-Diisopropyl-2-propoxy-phenyl)-3-methyl-octa-2,4,6-trienoic acid]: the inhibition constant Ki at RARβ amounted to 200 nM. On RXRγ [1], the “RXR Trans. efficacy γ” value worked out at 25%. In data set [2] (Table 2), the “Glucose Day 0” value was found to be 365 mg/dL; the “Triglycerides Day 0” value came to 199 mg/dL; the “Glucose Day 3, 3 h” value was determined as 283 mg/dL; the “Triglycerides Day 3, 3 h” value turned out to be 189 mg/dL. Also, in data set [2] (Table 2), the “Glucose Day 6, 3 h” value is 309 mg/dL and the “T4 Day 7” value worked out at 2.2 µg/dL. For the same compound, on RXRγ [3], the inhibition constant (Ki) is 21 nM.
